{"source": "paper PMC5510229", "about": "“BCAT1 controls metabolic reprogramming in activated human macrophages and is associated with inflammatory diseases” (Nature Communications, 2017)", "system": "human monocyte-derived macrophages (hMDMs)", "test": "hMDM cell viability (alamarBlue)", "format": "cell-based", "conditions": "ERG240 20 mM", "experimental": "Migration of BMDMs an d viability of hMDMs\nThe migration of BMDMs was assessed using a modified Bo yden chamber methodology.\nSpecificall y, mouse BMDMs were tr ypsinized and suspended in serum free incomplete medi a containing various concentrations of the drug at a cell density of 2.5x10^4 cells/mL. Volumes of 400 µL of cell suspens ions were added onto the upper chamber of 6.5 m m transwell inserts (Costar, Cat. No. 3422), placed in a 24-well plate (Costar). A volume of 1.5 mL of complete media containing 10% FBS as chemo- attractant were added into the lower chambers of the plate. The assa y also included wells with lower chambers containing serum free incomplete media as negative control. […]\nTo determine the effect of ERG240 on the total number of BMDMs, cell s were plated onto a 96-well plate at a density of 5,000 cells per well in complete media and allowed to adhere overnight. The cells were then exposed to various drug concentrations overnight and the cell population was quantified with CyQuant Cell Proliferation kit (Life Technologies) using triplicates, in two independent experiments. For hMDMs, cell viability was determined using the alamarBlue® Assa y (Invitrogen). […]\nbacked up by quantitative proteomics by LC -MS/MS (with maximum of the 12 most abundant multiply -charged ions registered in each survey spectrum selected in a data - […]", "data": [{"smiles": "CC(=O)C(C)CCC(=O)O", "note": "(centres unmarked) [ERG240]", "values": [{"measurement": "cell viability at 3 and 8 h", "setting": "control and LPS-treated hMDMs", "result": "did not affect cell viability"}, {"measurement": "cell viability at 24 h", "setting": "only in LPS-stimulated cells", "result": "modest but significant reduction in cell viability"}]}]}
